Measurements as given in patent US9670172B2, “Heterocyclic compounds and methods of use” (Medivation Technologies, Inc., priority 2014, dated 2017).
Converted amounts (≈) assume the structure as drawn. Read-outs that look alike come from different tables or passages of the source.

Tests used:
[1] = Solubility study at different pH (Pion, Inc.); format: physicochemical; conditions: aqueous buffer
Text: Other ionized forms are conceivable, but those presented here are a protonated form; a neutral or internal zwitterionic form; and an anionic form. Which form would exist is dependent upon the pH of the aqueous or physiological solution in which the compound is placed. […] These values are similar to those experimentally obtained under potentiometric and spectrophotometric methods [courtesy of Pion, Inc.], found to be 3.09 and 5.27. […] It is postulated that the more electronegative nature of the CF3 group results in a more highly acidic nature of the compound. Based on the calculated/measured pKa values of the trifluoromethylsulfonamide containing compounds claimed herein, it is likely that at a pH of 6-8, these compounds will predominantly exist in the anionic form, with the above equilibrium lying to the right at higher pH values. The anionic form renders the compound more aqueous soluble and therefore better absorbed. […] When a compound is dosed orally, most of the absorption occurs in the intestines where the pH ranges from 6-8.

HepG2 cells = experiment: HepG2 cell viability by MTS; format: cell-based; conditions: Homo sapiens, several concentrations, FIG. 1
Experimental: (§1) For viability measurements, HepG2 cells were seeded at 5,000 cells per well in 96-well plates in DMEM supplemented with 10% FBS. After 1 day in culture, cells were treated with compounds (20 μM & 5 μM) for 3 days in DMEM without FBS. Viability was measured by MTS. Treatment with compounds (20 μM & 5 μM) was carried out in medium without FBS, and viability was measured by MTS. […]

[2] = HepG2 cell viability by MTS; format: cell-based; conditions: human, HepG2 cells, 3 days, DMEM without FBS, MTS, read-out: Average Viability (% Inhibition, n = 3)
Experimental: as §1

SREBP2 [3] = experiment: SREBP2 cleavage in HEPG2 cells (Western blot normalized to actin); format: cell-based; conditions: Homo sapiens, several concentrations, FIG. 1
SREBP2 [4] = experiment: as above; format: cell-based; conditions: Homo sapiens, HepG2 cells, read-out: Average SREBP2 cleavage (% Inhibition, n = 3); for inhibition at 20 µM: 24 h, 1 day, DMEM without FBS
Experimental: Average SREBP2 cleavage in HEPG2 cells was measured in the presence of compounds disclosed in Table 1. HepG2 cells were seeded at 500,000 cells per well in 6-well plates in DMEM supplemented with 10% FBS. After 2 days, cells were treated with compounds (20 μM) for 1 day in DMEM without FBS. Western blots were normalized with respect to actin.
The results are shown in Table 3 as percent inhibition@20 μM, and in Table 4 as percent inhibition@5 μM.

[5] = pKa by potentiometric and spectrophotometric methods (Pion, Inc.); format: physicochemical; conditions: two values, read-out: pKa experimentally obtained
Text: As has been described above, the inherent pKa(s) of molecules can be assessed by potentiometric methods known to the skilled artisan, typically UV spectrophotometry [see, for example, Julémont, et al. J. Med. Chem. (2002), 45, pp 5182-5185]. In-silico methods can be used as a predictive tool, and software is commercially available from, for example, ACD/Labs, Molecular Discovery, ChemAxon, and other vendors. […] The compounds provided herein contain several ionizable centers including, for example, the trifluoromethylsulfonamide nitrogen atom; the thiazole ring nitrogen atom; the “ring A” pyridine nitrogen atom, etc.
Other ionized forms are conceivable, but those presented here are a protonated form; a neutral or internal zwitterionic form; and an anionic form. Which form would exist is dependent upon the pH of the aqueous or physiological solution in which the compound is placed. […] These values are similar to those experimentally obtained under potentiometric and spectrophotometric methods [courtesy of Pion, Inc.], found to be 3.09 and 5.27. […] Based on the calculated/measured pKa values of the trifluoromethylsulfonamide containing compounds claimed herein, it is likely that at a pH of 6-8, these compounds will predominantly exist in the anionic form, with the above equilibrium lying to the right at higher pH values. […]

[6] = PK parameters for representative compounds (i.v. and p.o.); conditions: in vivo; for half-life: read-out: Terminal t1/2 (converted)
Text: Standard PK parameters were collected in Mouse and Dog for Compound #37 in mouse (FIG. 4A) and dog (FIG. 4B).

Compound | solubility ([1]; pH 6.0) [µg/mL] | solubility ([1]; pH 7.0) [µg/mL] | solubility ([1]; pH 8.0) [µg/mL] | IC50 (HepG2 cells) [µM] | pKa [5] | AUC(0-t) ([6]; iv, i.v. @ 2 mg/kg) [µM·h] | Cmax ([6]; iv, i.v. @ 2 mg/kg) [µM] | Vd ([6]; iv, i.v. @ 2 mg/kg) [L/kg] | clearance ([6]; iv, i.v. @ 2 mg/kg) [mL/min/kg] | half-life ([6]; iv, i.v. @ 2 mg/kg) [h] | AUC(0-t) ([6]; po, p.o. @ 10 mg/kg) [µM·h] | Cmax ([6]; po, p.o. @ 10 mg/kg) [µM] | Tmax ([6]; po, p.o. @ 10 mg/kg) [h] | bioavailability ([6]; po, p.o. @ 10 mg/kg) [%] | half-life ([6]; po, p.o. @ 10 mg/kg) [h] | cytotoxicity at 3 days, 5 μM [2] [%] | cytotoxicity at 3 days, 20 μM [2] [%] | IC50 (SREBP2 [3]) [µM] | inhibition at 20 µM (SREBP2 [4]) [%] | inhibition at 5 µM (SREBP2 [4]) [%]
O=S(=O)(Nc1ccc(-c2csc(-c3ccnc(CCC(F)(F)F)c3)n2)c(Cl)c1)C(F)(F)F [Compound 64, N-(3-chloro-4-{2-[2-(3,3,3-trifluoropropyl)pyridin-4-yl]-1,3-thiazol-4-yl}phenyl)-1,1,1-trifluoromethanesulfonamide] |  |  |  |  |  | 38.5 | 7.13 | 1.95 | 0.917 |  | 526 | 32.1 | 24 | 273 | > 8 |  | 100 |  | 97 | 
O=S(=O)(Nc1ccc(-c2csc(-c3ccnc(CC4CCCCC4)c3)n2)c(Cl)c1)C(F)(F)F [Compound 70, N-(3-chloro-4-{2-[2-(cyclohexylmethyl)pyridin-4-yl]-1,3-thiazol-4-yl}phenyl)-1,1,1-trifluoromethanesulfonamide] |  |  |  |  |  | 2.2 | 4 | 5.22 | 54.7 | 1.1 | 5.19 | 2.2 | 0.5 | 46.4 | 1.04 | 100 |  |  |  | 73
O=S(=O)(Nc1ccc(-c2csc(-c3ccnc(N4CCCCC4)c3)n2)c(Cl)c1)C(F)(F)F [Compound 85, N-(3-chloro-4-{2-[2-(piperidin-1-yl)pyridin-4-yl]-1,3-thiazol-4-yl}phenyl)-1,1,1-trifluoromethanesulfonamide] |  |  |  |  |  | 0.655 | 0.241 | 27.3 | 77.2 | 4.08 | 2.27 | 0.45 | 2 | 69.3 | > 8 | 93 |  |  |  | 82
O=S(=O)(Nc1ccc(-c2csc(-c3ccnc(NC4CCCC4)c3)n2)c(Cl)c1)C(F)(F)F [Compound 92, N-(3-chloro-4-{2-[2-(cyclopentylamino)pyridin-4-yl]-1,3-thiazol-4-yl}phenyl)-1,1,1-trifluoromethanesulfonamide] |  |  |  |  |  |  |  |  |  |  |  |  |  |  |  | 94 |  |  |  | 59
O=S(=O)(Nc1ccc(-c2csc(-c3c[nH]c4ccccc34)n2)c(Cl)c1)C(F)(F)F [Compound 93, N-{3-chloro-4-[2-(1H-indol-3-yl)-1,3-thiazol-4-yl]phenyl}-1,1,1-trifluoromethanesulfonamide] |  |  |  |  |  |  |  |  |  |  |  |  |  |  |  | 82 |  |  |  | 28
O=S(=O)(Nc1ccc(-c2csc(-c3ccnc4ccccc34)n2)c(Cl)c1)C(F)(F)F [Compound 94, N-[3-chloro-4-[2-(4-quinolyl)thiazol-4-yl]phenyl]-1,1,1-trifluoro-methanesulfonamide] |  |  |  |  |  |  |  |  |  |  |  |  |  |  |  | 84 |  |  |  | 35
O=S(=O)(Nc1ccc(-c2csc(-c3ccnc(Cl)c3)n2)c(Cl)c1)C(F)(F)F [Compound 95, N-(3-chloro-4-(2-(2-chloropyridin-4-yl)thiazol-4-yl)phenyl)-1,1,1-trifluoromethanesulfonamide] |  |  |  |  |  |  |  |  |  |  |  |  |  |  |  | 86 |  |  |  | 39

More lines, main results first:

solubility ([1]; pH 6.0) [µg/mL] | solubility ([1]; pH 7.0) [µg/mL] | solubility ([1]; pH 8.0) [µg/mL] | IC50 (HepG2 cells) [µM] | pKa [5] | AUC(0-t) ([6]; iv, i.v. @ 2 mg/kg) [µM·h] | Cmax ([6]; iv, i.v. @ 2 mg/kg) [µM] | Vd ([6]; iv, i.v. @ 2 mg/kg) [L/kg] | clearance ([6]; iv, i.v. @ 2 mg/kg) [mL/min/kg] | half-life ([6]; iv, i.v. @ 2 mg/kg) [h] | AUC(0-t) ([6]; po, p.o. @ 10 mg/kg) [µM·h] | Cmax ([6]; po, p.o. @ 10 mg/kg) [µM] | Tmax ([6]; po, p.o. @ 10 mg/kg) [h] | bioavailability ([6]; po, p.o. @ 10 mg/kg) [%] | half-life ([6]; po, p.o. @ 10 mg/kg) [h] | Compound | cytotoxicity at 3 days, 5 μM [2] [%] | cytotoxicity at 3 days, 20 μM [2] [%] | IC50 (SREBP2 [3]) [µM] | inhibition at 20 µM (SREBP2 [4]) [%] | inhibition at 5 µM (SREBP2 [4]) [%]
13 (≈ 27.3 µM) | 104 (≈ 219 µM) | > 130 | 2.15 | 3.09 |  |  |  |  |  |  |  |  |  |  | CC(C)Cc1cc(-c2nc(-c3ccc(NS(=O)(=O)C(F)(F)F)cc3Cl)cs2)ccn1 [Compound 37, N-(3-chloro-4-(2-(2-isobutylpyridin-4-yl)thiazol-4-yl)phenyl)-1,1,1-trifluoromethanesulfonamide] | 94 | 95 | 4.6 | 94.6 | 75
 |  |  |  |  | 12.6 | 3.38 | 1.28 | 4.8 | 3.08 | 57.1 | 6.58 | 4 | 90.2 | > 8 | O=S(=O)(Nc1ccc(-c2csc(-c3ccnc(Cc4ccccc4)c3)n2)c(Cl)c1)C(F)(F)F [Compound 60, N-{4-[2-(2-benzylpyridin-4-yl)-1,3-thiazol-4-yl]-3-chlorophenyl}-1,1,1-trifluoromethanesulfonamide] |  | 100 |  | 99 | 
 |  |  |  |  | 13.6 | 3.57 | 1.27 | 4.18 | 3.5 | 51.5 | 7.57 | 4 | 75.9 | > 8 | O=S(=O)(Nc1ccc(-c2csc(-c3cccc4ccccc34)n2)c(Cl)c1)C(F)(F)F [Compound 71, N-{3-chloro-4-[2-(naphthalen-1-yl)-1,3-thiazol-4-yl]phenyl}-1,1,1-trifluoromethanesulfonamide] | 97 |  |  |  | 77
 |  |  |  |  | 8.94 | 3.63 | 1.72 | 70.8 | 2.8 | 130 | 20.6 | 4 | 291 | > 8 | O=S(=O)(Nc1ccc(-c2csc(-c3cccc4[nH]ccc34)n2)c(Cl)c1)C(F)(F)F [Compound 80, N-{3-chloro-4-[2-(1H-indol-4-yl)-1,3-thiazol-4-yl]phenyl}-1,1,1-trifluoromethanesulfonamide] | 86 |  |  |  | 90
 |  |  |  |  | 25.4 | 12.6 | 0.719 | 2.28 | 3.64 | 175 | 25.8 | 4 | 138 | > 8 | O=S(=O)(Nc1ccc(-c2csc(-c3ccc4c(c3)CCO4)n2)c(Cl)c1)C(F)(F)F [Compound 82, N-{3-chloro-4-[2-(2,3-dihydro-1-benzofuran-5-yl)-1,3-thiazol-4-yl]phenyl}-1,1,1-trifluoromethanesulfonamide] | 82 |  |  |  | 77
 |  |  |  |  | 10.6 | 3.44 | 1.45 | 5 | 3.35 | 51.5 | 8.41 | 2 | 96.8 | > 8 | O=S(=O)(Nc1ccc(-c2csc(-c3cccc(N4CCCCC4)c3)n2)c(Cl)c1)C(F)(F)F [Compound 88, N-(3-chloro-4-{2-[3-(piperidin-1-yl)phenyl]-1,3-thiazol-4-yl}phenyl)-1,1,1-trifluoromethanesulfonamide] | 19 |  |  |  | 90
